Experimental data reported in patent US12673944B2, “Compounds having inhibitory activity against glucosylceramide synthase or pharmaceutically acceptable salt thereof, processes for preparing the same, and pharmaceutical compositions comprising the same” (YUHAN CORPORATION, priority 2019, dated 2026).
pIC50: −log10 of the molar value.

Legend:
[1] = target: T1, glucosylceramide synthase (GCS) (Homo sapiens, UniProt Q16739); experiment: GCS enzyme inhibition assay (A549 cell lysate, NBD C6-ceramide, HPLC fluorescence); format: biochemical; conditions: inhibitory activity against GCS, 37° C., 90 minutes
T1 construct: The obtained supernatant was used; host or cells: A549 cells (lysate supernatant after sonication)
T1 sequence (Q16739 1-394): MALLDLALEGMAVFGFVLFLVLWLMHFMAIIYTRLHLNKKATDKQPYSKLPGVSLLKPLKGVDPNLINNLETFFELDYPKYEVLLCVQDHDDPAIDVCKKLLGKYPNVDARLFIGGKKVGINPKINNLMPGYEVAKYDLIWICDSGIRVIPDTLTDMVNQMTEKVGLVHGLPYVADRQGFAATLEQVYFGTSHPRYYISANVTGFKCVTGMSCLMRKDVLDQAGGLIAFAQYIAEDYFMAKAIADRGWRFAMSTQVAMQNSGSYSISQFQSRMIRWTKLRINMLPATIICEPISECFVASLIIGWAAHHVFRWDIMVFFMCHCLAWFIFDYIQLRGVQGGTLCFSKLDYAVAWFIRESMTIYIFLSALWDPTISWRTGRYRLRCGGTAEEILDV
How it was run: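 A549 cell lysate (50 mM HEPES pH 7.3) served as GCS source; reactions ran 90 min at 37° C, were stopped with chloroform/methanol and lipids extracted. Activity taken as GlcCer/(Cer+GlcCer) peak area, normalised between DMSO and ibiglustat controls.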

[2] = system: GM1 production in Jurkat cells; experiment: cells; format: cell-based; conditions: Homo sapiens, Jurkat, 72 h

Row | SMILES | pIC50 [1] | pIC50 [2]
1 | CC1(C)COc2cc(-c3ccc(=O)n(Cc4ccccc4)c3)ccc2C1NC(=O)O[C@@H]1CN2CCC1CC2 (stereo partly drawn) [Example 292, (S)-quinuclidin-3-yl (7-(1-benzyl-6-oxo-1,6-dihydropyridin-3-yl)-3,3-dimethylchroman-4-yl)carbamate] | 8.86 | 7.52
2 | CC1(C)COc2cc(/C=C/c3ccc(F)cc3)ccc2C1NC(=O)O[C@@H]1CN2CCC1CC2 (stereo partly drawn) [Example 293, (S)-quinuclidin-3-yl (7-((E)-4-fluorostyryl)-3,3-dimethylchroman-4-yl)carbamate] | 8.91 | 8.52
3 | CC1(C)CC(NC(=O)O[C@@H]2CN3CCC2CC3)c2ccc(-c3cccc(C(F)(F)F)c3)cc2O1 (stereo partly drawn) [Example 295, (S)-quinuclidin-3-yl (2,2-dimethyl-7-(3-(trifluoromethyl)phenyl)chroman-4-yl)carbamate] | 7.74 | 7.95
4 | CC1(C)CC(NC(=O)O[C@@H]2CN3CCC2CC3)c2ccc(-c3cccc(OC(F)(F)F)c3)cc2O1 (stereo partly drawn) [Example 296, (S)-quinuclidin-3-yl (2,2-dimethyl-7-(3-(trifluoromethoxy)phenyl)chroman-4-yl)carbamate] | 7.94 | 8.90
5 | CC1(NC(=O)O[C@@H]2CN3CCC2CC3)CCOc2cc(-c3cccc(Cl)c3)ccc21 (stereo partly drawn) [Example 297, (S)-quinuclidin-3-yl (7-(3-chlorophenyl)-4-methylchroman-4-yl)carbamate] | 9.10 | 8.25
6 | CC1(NC(=O)O[C@@H]2CN3CCC2CC3)CCOc2cc(-c3cccc(F)c3)ccc21 (stereo partly drawn) [Example 298, (S)-quinuclidin-3-yl (7-(3-fluorophenyl)-4-methylchroman-4-yl)carbamate] | 9.15 | 8.26
7 | COc1cccc(-c2ccc3c(c2)OCCC3(C)NC(=O)O[C@@H]2CN3CCC2CC3)c1 (stereo partly drawn) [Example 299, (S)-quinuclidin-3-yl (7-(3-methoxyphenyl)-4-methylchroman-4-yl)carbamate] | 9.22 | 8.01
8 | CC(C)c1cccc(-c2ccc3c(c2)OCCC3(C)NC(=O)O[C@@H]2CN3CCC2CC3)c1 (stereo partly drawn) [Example 300, (S)-quinuclidin-3-yl (7-(3-isopropylphenyl)-4-methylchroman-4-yl)carbamate] | 9.64 | 9.05
9 | COc1ccc(Cl)c(-c2ccc3c(c2)OCCC3(C)NC(=O)O[C@@H]2CN3CCC2CC3)c1 (stereo partly drawn) [Example 301, (S)-quinuclidin-3-yl (7-(2-chloro-5-methoxyphenyl)-4-methylchroman-4-yl)carbamate] | 9.10 | 7.76
10 | CCOc1ccc(-c2ccc3c(c2)OCCC3(C)NC(=O)O[C@@H]2CN3CCC2CC3)cc1 (stereo partly drawn) [Example 302, (S)-quinuclidin-3-yl (7-(4-ethoxyphenyl)-4-methylchroman-4-yl)carbamate] | 9.10 | 8.59
11 | CN(C)c1cccc(-c2ccc3c(c2)OCCC3(C)NC(=O)O[C@@H]2CN3CCC2CC3)c1 (stereo partly drawn) [Example 303, (S)-quinuclidin-3-yl (7-(3-(dimethylamino)phenyl)-4-methylchroman-4-yl)carbamate] | 9.30 | 8.49
12 | CC1(NC(=O)O[C@@H]2CN3CCC2CC3)CCOc2cc(-c3coc4ccccc34)ccc21 (stereo partly drawn) [Example 304, (S)-quinuclidin-3-yl (7-(benzofuran-3-yl)-4-methylchroman-4-yl)carbamate] | 9.42 | 8.68
13 | CC1(NC(=O)O[C@@H]2CN3CCC2CC3)CCOc2cc(-c3cccc(C(F)(F)F)c3)ccc21 (stereo partly drawn) [Example 305, (S)-quinuclidin-3-yl (4-methyl-7-(3-(trifluoromethyl)phenyl)chroman-4-yl)carbamate] | 9.15 | 8.27
14 | CC1(NC(=O)O[C@@H]2CN3CCC2CC3)CCOc2cc(-c3cccc(OC(F)(F)F)c3)ccc21 (stereo partly drawn) [Example 306, (S)-quinuclidin-3-yl (4-methyl-7-(3-(trifluoromethoxy)phenyl)chroman-4-yl)carbamate] | 9.30 | 8.52
15 | CC1(NC(=O)O[C@@H]2CN3CCC2CC3)CCOc2cc(-c3ccc4c(c3)OC(F)(F)O4)ccc21 (stereo partly drawn) [Example 307, (S)-quinuclidin-3-yl (7-(2,2-difluorobenzo[d][1,3]dioxol-5-yl)-4-methylchroman-4-yl)carbamate] | 8.97 | 8.51
16 | CCOc1c(C)cc(-c2ccc3c(c2)OCCC3(C)NC(=O)O[C@@H]2CN3CCC2CC3)cc1C (stereo partly drawn) [Example 308, (S)-quinuclidin-3-yl (7-(4-ethoxy-3,5-dimethylphenyl)-4-methylchroman-4-yl)carbamate] | 8.97 | 8.39
17 | CC1(NC(=O)O[C@@H]2CN3CCC2CC3)CCOc2cc(-c3ccccc3C#N)ccc21 (stereo partly drawn) [Example 309, (S)-quinuclidin-3-yl (7-(2-cyanophenyl)-4-methylchroman-4-yl)carbamate] | 8.24 | 7.43
18 | CC(C)(C)c1cccc(-c2ccc3c(c2)OCCC3(C)NC(=O)O[C@@H]2CN3CCC2CC3)c1 (stereo partly drawn) [Example 310, (S)-quinuclidin-3-yl (7-(3-(tert-butyl)phenyl)-4-methylchroman-4-yl)carbamate] | 9.64 | 9.70
19 | Cc1cscc1-c1ccc2c(c1)OCCC2(C)NC(=O)O[C@@H]1CN2CCC1CC2 (stereo partly drawn) [Example 311, (S)-quinuclidin-3-yl (4-methyl-7-(4-methylthiophen-3-yl)chroman-4-yl)carbamate] | 9.77 | 9.15
20 | CC(C)(C)c1cccc(-c2ccc3c(c2)COCC3NC(=O)O[C@@H]2CN3CCC2CC3)c1 (stereo partly drawn) [Example 312, (S)-quinuclidin-3-yl (7-(3-(tert-butyl)phenyl)isochroman-4-yl)carbamate] | 8.25 | 7.54
21 | CC(C)c1cccc(-c2ccc3c(c2)COCC3NC(=O)O[C@@H]2CN3CCC2CC3)c1 (stereo partly drawn) [Example 313, (S)-quinuclidin-3-yl (7-(3-isopropylphenyl)isochroman-4-yl)carbamate] | 8.41 | 7.46
22 | CN1CCC(NC(=O)O[C@@H]2CN3CCC2CC3)c2ccc(-c3cccc(C(C)(C)C)c3)cc21 (stereo partly drawn) [Example 314, (S)-quinuclidin-3-yl (7-(3-(tert-butyl)phenyl)-1-methyl-1,2,3,4-tetrahydroquinolin-4-yl)carbamate] | 8.19 | 7.25
23 | CN1CCC(NC(=O)O[C@@H]2CN3CCC2CC3)c2ccc(-c3coc4ccccc34)cc21 (stereo partly drawn) [Example 315, (S)-quinuclidin-3-yl (7-(benzofuran-3-yl)-1-methyl-1,2,3,4-tetrahydroquinolin-4-yl)carbamate] | 7.83 | 7.24
24 | O=C(NC1CCSc2ccc(-c3ccc(Cl)cc3)cc21)O[C@@H]1CN2CCC1CC2 (stereo partly drawn) [Example 316, (S)-quinuclidin-3-yl (6-(4-chlorophenyl)thiochroman-4-yl)carbamate] | 7.44 | 6.60
25 | O=C(NC1CCSc2cc(-c3cccc(F)c3)ccc21)O[C@@H]1CN2CCC1CC2 (stereo partly drawn) [Example 317, (S)-quinuclidin-3-yl (7-(3-fluorophenyl)thiochroman-4-yl)carbamate] | 8.53 | 7.86
26 | O=C(NC1CCSc2cc(-c3cccc(Cl)c3)ccc21)O[C@@H]1CN2CCC1CC2 (stereo partly drawn) [Example 318, (S)-quinuclidin-3-yl (7-(3-chlorophenyl)thiochroman-4-yl)carbamate] | 8.89 | 7.56
